The target of one assay is T1, E. coli DNA gyrase (Escherichia coli, UniProt P0AES6).
T1 construct: purchased New England Biolabs, Beverly, MA
Kind of assay: Agarose gel DNA gyrase supercoiling assay, E. coli. It is filed as biochemical. How it is done: Conditions to measure the supercoiling of a relaxed, closed-circular plasmid substrate and cleavage complex stabilization in agarose gels were adapted from the literature and carried out as described below. Plasmid supercoiling reactions were assembled by combining 0.4 μL compound (in 100% DMSO), 12.5 μL H2O, 4 μL 5Xbuffer, 0.4 μL relaxed pUC19 DNA substrate (0.5 μg), […] dilute DNA gyrase (buffer, substrate, and enzyme from New England Biolabs, Beverly, MA). Alternatively the substrate pHOT-1 (TopoGEN, Buena Vista, CO) was used as noted (the substrate from New England Biolabs has been discontinued). P. aeruginosa DNA gyrase was supplied by Inspiralis, Norwich, UK. Reactions were allowed to proceed for 30 min. at 37°C after which 5 μL of stop buffer (5% sarkosyl, 25% glycerol, 1X Blue Juice [Invitrogen, Carlsbad, CA]) were added. Reactions were then extracted with 20 μL chloroform/isoamylOH (24:1) and a portion of the aqueous phase was loaded into a well in a 1% agarose/Tris-borate EDTA gel. Electrophoresis was conducted at 35 VDC until the loading dye migrated about 6.5 cm down the gel. DNA in the gel was then stained in 0.5 μg/mL ethidium bromide in water for 30 min. and rinsed (3X) in H2O. The gel was illuminated with UV light, photographed, and DNA quantitated with an Alpha Imager and accompanying software (ProteinSimple, San Jose, CA).

The next assay has as its system E. coli HS151. Description: In vitro time-dependent bactericidal study. It is filed as cell-based. How it is done:
A culture of E. coli HS151 in CAMH broth was grown overnight (18 hrs.) at 37°C, diluted 1:10,000 in 200 mL of fresh CAMH broth and further incubated for 1 hour at 37°C with shaking. A time-zero sample was then removed and 20 mL portions of the remaining culture were transferred into 125 mL vented flasks to which were added MRL-1082 or control antibiotics, at the indicated concentrations. These flasks were then incubated at 37°C with shaking (70 rpm). Samples were withdrawn at the indicated times, plated on blood agar (trypticase soy agar with 5% sheep blood, Becton-Dickinson) and, following overnight growth at 37°C, colonies were counted to determine CFU/mL.

Assay [1] addresses T2, wild-type E. coli DNA gyrase (recombinant GyrA/GyrB) (Escherichia coli, UniProt P0AES6).
T2 construct: made in house; host or cells: E. coli BL21(DE3) RIL
Kind of assay: Gel supercoiling assay, reconstituted wild-type gyrase. It counts as biochemical. How it is done:
Conditions to measure the supercoiling of a relaxed, closed-circular plasmid substrate and cleavage complex stabilization in agarose gels were adapted from the literature and carried out as described below. Plasmid supercoiling reactions were assembled by combining 0.4 μL compound (in 100% DMSO), 12.5 μL H2O, 4 μL 5Xbuffer, 0.4 μL relaxed pUC19 DNA substrate (0.5 μg), […] dilute DNA gyrase (buffer, substrate, and enzyme from New England Biolabs, Beverly, MA). Alternatively the substrate pHOT-1 (TopoGEN, Buena Vista, CO) was used as noted (the substrate from New England Biolabs has been discontinued). P. aeruginosa DNA gyrase was supplied by Inspiralis, Norwich, UK. […] The gel was illuminated with UV light, photographed, and DNA quantitated with an Alpha Imager and accompanying software (ProteinSimple, San Jose, CA). […]
The E. coli gyrA and gyrB (wild-type and t1537c (F513L)) genes with a N-terminal His6 tag sequence followed by Tobacco Etch Virus (TEV) cleavage site ([…]) were cloned into pET28(+) vector (EMD Millipore). […] Fractions containing gyrase subunit protein (as monitored by sodium dodecyl sulfate polyacrylamide gel electrophoresis (SDS-PAGE)) were pooled and loaded onto a Q-Sepharose column (GE Healthcare, Princeton, NJ, USA) equilibrated in 20 mM Tris-HCl (pH = 7.9), 25mM NaCl, 10% glycerol, and 2 mM β-mercaptoethanol. […]

The structures appear in SMILES notation. Entries after “also recorded” stand apart in the source; their conditions may differ. Some results are limits rather than exact numbers.

In general, IC50 refers to the midpoint of a concentration-inhibition curve. On E. coli DNA gyrase, `Cn1ncc2cc(-c3cnnn3C3CCN(C(=O)Nc4cc(Cl)cc(Cl)c4)CC3)ccc21` [MRL-423] registered an IC50 of about 7.5 µM.

As to `COc1ccc(C)cc1NC(=O)N1CCC(n2nncc2-c2ccc3c(cnn3C)c2)CC1` [MRL-770], the “inhibition of E. coli DNA gyrase (gel)” value against E. coli DNA gyrase (S1 Fig, pHOT-1 substrate) is “limited; also recorded: dose-dependent inhibition of enzyme activity”.

The MIC is the lowest concentration found to suppress growth. As for `Cn1ncc2cc(-c3nnnn3C3CCN(C(=O)Nc4ccc(Cl)c(Cl)c4)CC3)ccc21` [MRL-1082], in the assay on E. coli HS151 (E. coli HS151, 2XMIC or greater, following 2–4 hours of treatment), the “reduction in culture viability” value is “greater than 3 log”. Further, in the assay on E. coli HS151 (E. coli HS151, 4-8XMIC, after 8 hours), the “culture viability, below lower limit of quantitation” value is under 20 CFU/mL. Besides, the minimal inhibitory concentration (MIC) in the assay with E. coli HS151 (Escherichia coli, HS151, 24 h, read-out: MIC of isolates from treated culture) was 0.0625 µg/mL. Besides, the half-maximal inhibitory concentration (IC50) in assay [1] is about 3.5 µM.

Source of the values: publication PMC5507300, “Antibacterial small molecules targeting the conserved TOPRIM domain of DNA gyrase” (PLoS ONE, 2017).
